Experimental data reported in US20230084899A1, “COMBINATION OF AN AHR-INHIBITOR AND AN PD1-INHIBITOR ANTIBODY AND ITS USE IN THE TREATMENT OF CANCER” (Bayer Aktiengesellschaft, priority 2019, published 2023).
Entries after “also recorded” stand apart in the source; their conditions may differ.

Experiments:
tumor cell proliferation = experiment: Anti-proliferative effect of the combination (tumor cell proliferation); format: cell-based
[1] = test system: human T cell/DC co-cultures; experiment: Mixed lymphocyte reaction: IL-2 in supernatants of matured DC / T cell co-culture; format: cell-based
Description: Whole blood samples from healthy donors were collected and PBMCs were isolated using density gradient centrifugation for 15 min at 800×g at room temperature with Biocoll separation solution (density […]; Biochrom, #L6115). The supernatants were discarded and the PBMCs were poured into 50 ml tubes, washed with PBS without Ca^+/Mg^+, counted and resuspended in MACS separation buffer (Miltenyi Biotec). The monocytes were isolated from PBMCs using the Monocyte Isolation Kit II (Miltenyi Biotec, Cat #130-091-153) according to manufacturer's instructions. On the day of co-culture, T cells were isolated from PBMC preparations obtained from whole blood of different donors using the Pan T Cell Isolation Kit (Auto MACS Pro, Cat #130-096-535).
Monocytes were differentiated into monocyte-derived dendritic cells (moDCs) using 100 ng/ml GM-CSF (R&D Systems, Cat #215-GM) and 100 ng/ml rhIL4 (R&D Systems, Cat #204-IL) for 6 days at 37° C., 5% CO2. To produce mature DCs, moDCs were further matured for 24 h with IFNγ (R&D Systems, Cat #285-IF) and lipopolysaccharide (LPS) from Escherichia coli O127: B8 (Sigma, Cat #L4516).
For the co-culture assay, matured DCs and T cells from different donors were used. The cells were seeded in 96-well plates (Costar, Cat #3585) at 1×10^4 cells/well for matured DCs and 5×10^4 cells/well for T cells. A serial dilution of component A (3× dilution steps) in combination with anti-programmed cell death 1 antibody (as component B: aPD-1; 1 μg/ml pembrolizumab or 3 μg/ml nivolumab) or respective concentrations of hIgG4 (isotype control TPP10747, PPB11084) was added and the cells were incubated for 3 days at 37° C., 5% CO2.
IL-2 cytokine levels were measured in aliquots of supernatants using the Human IL-2 Tissue Culture kit (Meso Scale Discovery, Cat #K151AHB-4).

For `C[C@@H](CO)NC(=O)c1cc(-c2ccc(Cl)cc2)nn(-c2cnn(C)c2)c1=O` [6-(4-Chlorophenyl)-N-[(2S)-1-hydroxypropan-2-yl]-2-(1-methyl-1H-pyrazol-4-yl)-3-oxo-2,3-dihydropyridazine-4-carboxamide], the “inhibiting tumor cell proliferation” value (tumor cell proliferation; in combination with nivolumab) was “synergistic effects” and the “anti-proliferative effect / inhibiting tumor cell proliferation” value (tumor cell proliferation; in combination with pembrolizumab) was “very strong synergy; also recorded: synergistic effects”.
With `C[C@@H](CO)NC(=O)c1cc(-c2ccc(Cl)cc2)nn(-c2cnn(C)c2)c1=O` [component A, 6-(4-Chlorophenyl)-N-[(2S)-1-hydroxypropan-2-yl]-2-(1-methyl-1H-pyrazol-4-yl)-3-oxo-2,3-dihydropyridazine-4-carboxamide] the “T cell activity (observed by IL-2 production)” value ([1]; alone and in combination with PD1 antibodies) was “enhances T cell activity”, the “IL-2 production from T cells” value ([1]; component A alone (component A+hIgG4 isotype control), serial dilution, 3 days co-culture) was “dose-dependent response” and the “IL-2 levels, combination compared to aPD-1 or component A alone” value ([1]; component A serial dilution + 1 μg/ml pembrolizumab, 3 days co-culture (FIG. 1)) was “higher IL-2 levels”. The “IL-2 levels, combination compared to aPD-1 or component A alone” value ([1]; component A serial dilution + 3 μg/ml nivolumab, 3 days co-culture (FIG. 2)) was “higher IL-2 levels”.
